Results taken from paper PMC11855478, “Bicyclic N,S-Acetals Containing Fused Cysteine-Amide System as New Heterocyclic Class Targeting Human Farnesyltransferase (FTase-h)” (International Journal of Molecular Sciences, 2025).

Assays:
[1] = molecular target: human farnesyltransferase (FTase) (Homo sapiens, UniProt P49354+P49356); assay: FTase inhibitory assay (fluorescence, Dansyl-GCVLS); assay type: biochemical; settings: for % FTI: inhibition of human FTase at 100 μM of tested compound, mean of two experiments
Method in brief: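 Partially purified recombinant FTase with Dansyl-GCVLS and farnesyl pyrophosphate in Tris/HCl pH 7.5 (DTT, MgCl2, ZnCl2, octyl-glucoside); fluorescence (ex 340/em 486 nm) read 15 min at 30 °C. IC50 by regression for compounds inhibiting >60% at 100 µM; kinetics varied FPP (Dns-GCVLS 2.5 μM) or peptide (FPP 10 μM).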

[2] = system: CCRF-CEM (Leukemia); assay: NCI one dose, CCRF-CEM; assay type: cell-based, human; settings: 1.00E-5 Molar one dose
Method in brief: (§1)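 NCI-run assay on its 60 human cancer cell lines, cytotoxicity determined via sulforhodamine B after 48 h of exposure.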

[3] = system: K-562 leukaemia cells; assay: NCI one dose, K-562; assay type: cell-based, human; settings: K-562, 1.00E-5 Molar one dose
Method in brief: as §1

[4] = system: RPMI-8226 (Leukemia); assay: NCI one dose, RPMI-8226; assay type: cell-based, human; settings: RPMI-8226, 1.00E-5 Molar one dose
Method in brief: as §1

[5] = system: A549/ATCC (Non-Small Cell Lung Cancer); assay: NCI one dose, A549/ATCC; assay type: cell-based, human; settings: 1.00E-5 Molar one dose
Method in brief: as §1

[6] = system: HOP-92 (Non-Small Cell Lung Cancer); assay: NCI one dose, HOP-92; assay type: cell-based, human; settings: HOP-92, 1.00E-5 Molar one dose
Method in brief: as §1

[7] = system: NCI-H23 (Non-Small Cell Lung Cancer); assay: NCI one dose, NCI-H23; assay type: cell-based, human; settings: NCI-H23, 1.00E-5 Molar one dose
Method in brief: as §1

[8] = system: COLO 205 (Colon Cancer); assay: NCI one dose, COLO 205; assay type: cell-based, human; settings: COLO 205, 1.00E-5 Molar one dose
Method in brief: as §1

[9] = system: HCC-2998 (Colon Cancer); assay: NCI one dose, HCC-2998; assay type: cell-based, human; settings: HCC-2998, 1.00E-5 Molar one dose
Method in brief: as §1

[10] = system: HCT-116 (Colon Cancer); assay: NCI one dose, HCT-116; assay type: cell-based, human; settings: HCT-116, 1.00E-5 Molar one dose
Method in brief: as §1

[11] = system: HT29 (Colon Cancer); assay: NCI one dose, HT29; assay type: cell-based, human; settings: HT29, 1.00E-5 Molar one dose
Method in brief: as §1

[12] = system: KM12 (Colon Cancer); assay: NCI one dose, KM12; assay type: cell-based, human; settings: KM12, 1.00E-5 Molar one dose
Method in brief: as §1

[13] = system: SW-620 (Colon Cancer); assay: NCI one dose, SW-620; assay type: cell-based, human; settings: SW-620, 1.00E-5 Molar one dose
Method in brief: as §1

[14] = system: MALME-3M (Melanoma); assay: NCI one dose, MALME-3M; assay type: cell-based, human; settings: 1.00E-5 Molar one dose
Method in brief: (§2)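 Compounds were screened in the NCI 60-cell-line human cancer panel with a 48 h exposure; cytotoxicity was read by sulforhodamine B staining.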

[15] = system: M14 (Melanoma); assay: NCI one dose, M14; assay type: cell-based, human; settings: M14, 1.00E-5 Molar one dose
Method in brief: as §1

[16] = system: SK-MEL-2 (Melanoma); assay: NCI one dose, SK-MEL-2; assay type: cell-based, human; settings: SK-MEL-2, 1.00E-5 Molar one dose
Method in brief: as §1

[17] = system: SK-MEL-28 (Melanoma); assay: NCI one dose, SK-MEL-28; assay type: cell-based, human; settings: SK-MEL-28, 1.00E-5 Molar one dose
Method in brief: as §1

[18] = system: IGROV1 (Ovarian Cancer); assay: NCI one dose, IGROV1; assay type: cell-based, human; settings: IGROV1, 1.00E-5 Molar one dose
Method in brief: as §1

[19] = system: OVCAR-3 (Ovarian Cancer); assay: NCI one dose, OVCAR-3; assay type: cell-based, human; settings: OVCAR-3, 1.00E-5 Molar one dose
Method in brief: as §1

[20] = system: OVCAR-5 (Ovarian Cancer); assay: NCI one dose, OVCAR-5; assay type: cell-based, human; settings: OVCAR-5, 1.00E-5 Molar one dose
Method in brief: as §1

[21] = system: NCI/ADR-RES (Ovarian Cancer); assay: NCI one dose, NCI/ADR-RES; assay type: cell-based, human; settings: 1.00E-5 Molar one dose
Method in brief: as §1

[22] = system: 786-0 (Renal Cancer); assay: NCI one dose, 786-0; assay type: cell-based, human; settings: 786-0, 1.00E-5 Molar one dose
Method in brief: as §1

[23] = system: A498 (Renal Cancer); assay: NCI one dose, A498; assay type: cell-based, human; settings: A498, 1.00E-5 Molar one dose
Method in brief: as §1

[24] = system: ACHN (Renal Cancer); assay: NCI one dose, ACHN; assay type: cell-based, human; settings: 1.00E-5 Molar one dose
Method in brief: as §2

[25] = system: SN12C (Renal Cancer); assay: NCI one dose, SN12C; assay type: cell-based, human; settings: 1.00E-5 Molar one dose
Method in brief: as §1

[26] = system: UO-31 renal cancer cells; assay: NCI one dose, UO-31; assay type: cell-based, human; settings: UO-31, 1.00E-5 Molar one dose
Method in brief: as §1

[27] = system: PC-3 (Prostate Cancer); assay: NCI one dose, PC-3; assay type: cell-based, human; settings: PC-3, 1.00E-5 Molar one dose
Method in brief: as §1

[28] = system: DU-145 (Prostate Cancer); assay: NCI one dose, DU-145; assay type: cell-based, human; settings: DU-145, 1.00E-5 Molar one dose
Method in brief: as §1

## COc1ccc(CNC(=O)[C@@H]2CS[C@@]3(C)c4ccccc4C(=O)N23)cc1 [4bF]
[1]; human FTase in vitro
  IC50: 9.21 µM
[1]
  % FTI: 67%
[2]
  Growth Percent: 93.94%
[3]
  Growth Percent: 77.39%
[4]
  Growth Percent: 88.87%
[5]
  Growth Percent: 80.46%
[6]
  Growth Percent: 80.27%
[7]
  Growth Percent: 96.08%
[8]
  Growth Percent: 108.39%
[9]
  Growth Percent: 101.61%
[10]
  Growth Percent: 93.74%
[11]
  Growth Percent: 84.10%
[12]
  Growth Percent: 96.53%
[13]
  Growth Percent: 106.66%
[14]
  Growth Percent: 111.34%
[15]
  Growth Percent: 102.83%
[16]
  Growth Percent: 93.38%
[17]
  Growth Percent: 106.19%
[18]
  Growth Percent: 107.92%
[19]
  Growth Percent: 108.61%
[20]
  Growth Percent: 107.98%
[21]
  Growth Percent: 97.36%
[22]
  Growth Percent: 98.12%
[23]
  Growth Percent: 96.46%
[24]
  Growth Percent: 101.13%
[25]
  Growth Percent: 101.88%
[26]
  Growth Percent: 89.30%
[27]
  Growth Percent: 93.51%
[28]
  Growth Percent: 105.22%

## COc1cccc(CNC(=O)[C@@H]2CS[C@H]3c4ccccc4C(=O)N23)c1 [4aE]
[1]
  % FTI: 35%
[2]
  Growth Percent: 102.31%
[3]
  Growth Percent: 85.13%
[4]
  Growth Percent: 101.67%
[5]
  Growth Percent: 83.51%
[6]
  Growth Percent: 99.32%
[7]
  Growth Percent: 99.84%
[8]
  Growth Percent: 112.81%
[9]
  Growth Percent: 98.50%
[10]
  Growth Percent: 102.32%
[11]
  Growth Percent: 89.79%
[12]
  Growth Percent: 100.40%
[13]
  Growth Percent: 108.22%
[14]
  Growth Percent: 107.90%
[15]
  Growth Percent: 107.40%
[16]
  Growth Percent: 95.73%
[17]
  Growth Percent: 113.63%
[18]
  Growth Percent: 109.07%
[19]
  Growth Percent: 104.00%
[20]
  Growth Percent: 113.91%
[21]
  Growth Percent: 106.48%
[22]
  Growth Percent: 102.72%
[23]
  Growth Percent: 92.71%
[24]
  Growth Percent: 110.85%
[25]
  Growth Percent: 105.19%
[26]
  Growth Percent: 97.14%
[27]
  Growth Percent: 98.06%
[28]
  Growth Percent: 104.21%
